Laboratory results reported in patent US10793567B2, “Bicyclic inhibitors of histone deacetylase” (Rodin Therapeutics, Inc., priority 2017, dated 2020).
Where two headings read alike, the source gives them in different places.

Legend:
[1] = test system: human myeloid progenitors (CFU-GM); experiment: Myeloid CFU assay (colony forming cell assay, bone marrow); assay type: cell-based; details: 14 days in culture
Description: (§1) Compounds were tested to evaluate the potential effects on human erythroid and myeloid progenitors using colony forming cell assays. Clonogenic progenitors of human erythroid (CFU-E, BFU-E), granulocyte-monocyte (CFU-GM) and multipotential (CFU-GEMM) lineages were assessed in a semi-solid methylcellulose-based media formulation containing rhlL-3 (10 ng/mL), rhGM-SCF (10 ng/mL), rhSCF (50 ng/mL) and Epo (3 U/mL).
(§2) Normal human bone marrow light density cells derived from normal bone marrow (NorCal Biologics, California), were stored in the gaseous phase of liquid nitrogen (−152° C.) until required for the assay. On the day of the experiment, the cells were thawed rapidly, the contents of each vial was diluted in 10 mL of Iscove's modified Dulbecco's medium containing 10% fetal bovine serum (IMDM+10% FBS) and washed by centrifugation (approximately 1200 r.p.m. for 10 minutes, room temperature). The supernatant was discarded and the cell pellets resuspended in a known volume of IMDM+10% FBS. A cell count (3% glacial acetic acid) and viability assessment (trypan blue exclusion test) was performed for the bone marrow sample.
(§3) On the day of the experiment, the compounds were dissolved in DMSO to a stock concentration of 10 mM. Serial dilutions were prepared from the stock concentration to achieve concentrations of 2 and 0.4 mM. When added to the methylcellulose-based media at 1:1000 (v/v), the final test concentrations of 10, 2 and 0.4 μM were achieved. Additionally, 5-FU was evaluated at 1.0, 0.1 and 0.01 μg/mL.
(§4) Clonogenic progenitors of the human erythroid (CFU-E and BFU-E) and myeloid (CFU-GM) lineages were set up in the methylcellulose-based media formulations described above. All compounds were added to the medium to give the final desired concentrations (10, 2 and 0.4 μM). 5-Fluorouracil (Sigma Aldrich) was used as a positive control for progenitor proliferation (inhibition of colony growth) and was introduced to the human bone marrow cultures at 1.0, 0.1, and 0.01 μg/mL. Solvent control cultures (containing no compound but 0.1% DMSO) as well as standard controls (containing no compound and no DMSO) were also initiated.
(§5) Human myeloid and erythroid progenitor assays were initiated at 2.0×10^4 cells per culture. Following 14 days in culture, myeloid and erythroid colonies were assessed microscopically and scored by trained personnel. The colonies were divided into the following categories based on size and morphology: CFU-E, BFU-E, CFU-GM and CFU-GEMM.
(§6) The mean±one standard deviation of three replicate cultures was calculated for progenitors of each category (CFU-E, BFU-E, etc.). Two-tailed t-tests were performed to assess if there was a difference in the number of colonies generated between solvent control and treated cultures. Due to the potential subjectivity of colony enumeration, a p value of less than 0.01 is deemed significant. To calculate the concentration of 50% inhibition of colony growth (IC50) for each compound, a dose response curve was generated plotting the log of the compound concentration versus the percentage of control colony growth using XLfit software (IDBS). The concentration of 50% inhibition of colony growth (IC50) was calculated based on the sigmoid curve fit using Dose-Response, One-Site Model formula: y=A+[(B−A)/(1+((C/x)^D))], where A=the initial value (baseline response), B=maximum response, C=center (drug concentration that provokes a response halfway between A and B) and D=slope of the curve at midpoint. Further, plots and additional dose response curves were generated using GraphPad Prism 7.0.
(§7) Erythroid (CFU-E and BFU-E), myeloid (CFU-GM) and multi-potential (CFU-GEMM) colony enumeration was performed by trained personnel. The distribution of colony types as well as general colony and cellular morphology was analyzed. For statistical analysis colony numbers in compound treated cultures were compared to the solvent control cultures. […]

[2] = test system: human erythroid progenitors (CFU-E, BFU-E); experiment: Erythroid CFU assay (colony forming cell assay, bone marrow); assay type: cell-based; details: 14 days in culture
Description: as §1, §2, §3, §4, §5, §6, §7

[3] = Brain and plasma exposure following IV and PO administration to mice; assay type: in vivo; details: mice; for Projected free brain @ 10 mpk / Brain Cmax @ 10 mpk: 10 mg/kg PO; for half-life / clearance: mouse, plasma; for clearance: read-out: IV PK Cl (converted)
Description: Compounds were dosed in mice at either 10 mg/kg or 30 mg/kg PO, and were dosed at 1 mg/kg IV. Three animals for collection at each time point for plasma via bleeding at 0.25, 0.5, 1, 4, 12 and 24 h. Terminal bleeding for plasma and sampling for brain at 0.25, 0.5, 1, 4, 12 and 24 h (also three animals per brain exposure time point group). Total of six time points for plasma and six time points for brain.
Plasma: The animal was restrained manually at the designated time points, approximately 150 μL blood/time point was collected into K2EDTA tube via retro orbital puncture or cardiac puncture under anesthesia with Isoflurane. The blood sample was centrifuged (2000 g, 4° C., 5 min) to generate plasma within 30 min after bleeding.
Brain: At the designated time points, a mid-line incision was made in the animals scalp and the skin was retracted. Using small bone cutters and rongeurs, removed the skull overlying the brain. Removed the brain using a spatula and rinse with cold saline. Placed the brain in screw-top tubes, and then stored the tubes under −70° C. until analysis.

HDAC2 [4] = molecular target: T1, HDAC2 (Homo sapiens (Human), UniProt Q92769); experiment: HDAC2 enzymatic inhibition assay in SY5Y cell lysate (HDAC-Glo 2); assay type: cell-based; details: SH-SY5Y cells, five hours incubation
Description: SH-SY5Y cells (Sigma) were cultured in Eagle's Modified Essential Medium supplemented with 10% fetal bovine serum and pen/strep. Twenty-four hours prior to compound dosing 20 uL of cells were plated in white 384 well plates at a density of 1,500 cells/well. Compounds were serially diluted in neat DMSO and then diluted 1:100 v/v into media without FBS and mixed. Media was removed from the plated cells and the diluted compounds in serum free media (1% v/v final DMSO) were added and incubated at 37.0 for five hours. Ten uL of HDAC-Glo 2 reagent with 0.1% Triton X-100 was then added, the plate was mixed and allowed to develop at room temperature for 100 minutes. Plates were then read with a Spectramax LMax luminometer employing a 0.4 s integration time. Dose response curves were constructed with normalized data where CI-994 at 100 uM was defined as 100% inhibition and DMSO alone as 0% inhibition.

HDAC1 = HDAC1 (Homo sapiens (Human), UniProt Q13547); experiment: HDAC1 enzymatic assay (Caliper LabChip, peptide deacetylation); assay type: biochemical; details: 17 hours, 25° C.
Description: (§8) The following describes an assay protocol for measuring the deacetylation of a peptide substrate by the enzymes HDAC2 or HDAC1. Enzyme, substrate, and cofactors are combined in a well of a microtiter plate and incubated for […] at 25° C. At the end of the incubation, the reaction is quenched by the addition of an SDS-containing buffer. Substrate and product are separated and quantified electrophoretically using the microfluidic-based LabChip 3000 Drug Discovery System from Caliper Life Sciences. The peptide substrate used in this assay is FAM-TSRHK(AC)KL-CONH2 (FAM is carboxyfluorescein). Peptide should be >98% purity by Capillary Electrophoresis. • 1. To a well of a 384-well plate, add 5 μL of 2× enzyme buffer. Using Labcyte Echo 550, add 100 nl compound. Enzyme and compound may be pre-incubated at this time if desired. • 2. Add 5 μL of 2× substrate buffer. • 3. Incubate plate at 25° C. for 17 hours. • 4. Terminate reaction by adding 40 μL of 1.55× stop buffer. • 5. Create job on a Caliper LabChip® 3000 Drug Discovery System. • 6. Load the plate and start electrophoresis using blue laser (480 nm) for excitation and green CCD (520 nm) for detection (CCD2). Reaction time=17 hours; Reaction temperature=25° C.
1% DMSO (from compound) 1 μM FAM-TSRHK(AC)KL-CONH2 5 nM HDAC Enzyme (specific activity may vary from lot-to-lot, and enzyme concentration may need to be adjusted to yield˜10-20% conversion of substrate to product).
Substrate and product peptides present in each sample are separated electrophoretically using the LabChip 3000 capillary electrophoresis instrument. As substrate and product peptides are separated, two peaks of fluorescence are observed. Change in the relative fluorescence intensity of the substrate and product peaks is the parameter measured, reflecting enzyme activity. Capillary electrophoregramms (RDA acquisition files) are analyzed using HTS Well Analyzer software (Caliper Life Sciences). The […] in each sample is determined as the product to sum ratio (PSR): P/(S+P), where P is the peak height of the product peptide and S is the peak height of the substrate peptide. For each compound, enzyme activity is measured at various concentrations (12 concentrations of compound spaced by 3× dilution intervals). Negative control samples (0%-inhibition in the absence of inhibitor) and positive control samples (100%-inhibition, in the presence of 20 mM EDTA) are assembled in replicates of four and are used to calculate %-inhibition values for each compound at each concentration. Percent inhibition (Pinh) is determined using following equation: Pinh=(PSR0%−PSRinh)/(PSR0%−PSR100%)*100, where PSRinh is the product sum ratio in the presence of inhibitor, PSR0% is the average product sum ration in the absence of inhibitor and PSR100% is the average product sum ratio in 100%-inhibition control samples.
The IC50 values of inhibitors are determined by fitting the inhibition curves (Pinh versus inhibitor concentration) by 4 parameter sigmoidal dose-response model using XLfit 4 software (IBDS).
In the table, “A” indicates a […] of between 0.1 μM and 0.5 μM and “B” a Kd value of greater than 0.5 μM and less than or equal to 5.0 μM.

HDAC2 [5] = molecular target: T1, HDAC2; experiment: HDAC2 enzymatic assay (Caliper LabChip, peptide deacetylation); assay type: biochemical; details: 17 hours, 25° C.
Description: as §8, with “Load the plate and start electrophoresis using blue laser (480 nm) for excitation and green CCD (520 nm) for detection (CCD2). Reaction time=17 hours; Reaction temperature=25° C.” left out
Substrate and product peptides present in each sample are separated electrophoretically using the LabChip 3000 capillary electrophoresis instrument. As substrate and product peptides are separated, two peaks of fluorescence are observed. Change in the relative fluorescence intensity of the substrate and product peaks is the parameter measured, reflecting enzyme activity. Capillary electrophoregramms (RDA acquisition files) are analyzed using HTS Well Analyzer software (Caliper Life Sciences). The […] in each sample is determined as the product to sum ratio (PSR): P/(S+P), where P is the peak height of the product peptide and S is the peak height of the substrate peptide. For each compound, enzyme activity is measured at various concentrations (12 concentrations of compound spaced by 3× dilution intervals). […]
The IC50 values of inhibitors are determined by fitting the inhibition curves (Pinh versus inhibitor concentration) by 4 parameter sigmoidal dose-response model using XLfit 4 software (IBDS). […]

[6] = iv, 1 mg/kg, 1 mg/kg IV, read-out: IV PK T1/2 (converted)
[7] = po, 10 mg/kg, PO, read-out: PO T1/2 (converted)

T1 sequence (Q92769 whole entry): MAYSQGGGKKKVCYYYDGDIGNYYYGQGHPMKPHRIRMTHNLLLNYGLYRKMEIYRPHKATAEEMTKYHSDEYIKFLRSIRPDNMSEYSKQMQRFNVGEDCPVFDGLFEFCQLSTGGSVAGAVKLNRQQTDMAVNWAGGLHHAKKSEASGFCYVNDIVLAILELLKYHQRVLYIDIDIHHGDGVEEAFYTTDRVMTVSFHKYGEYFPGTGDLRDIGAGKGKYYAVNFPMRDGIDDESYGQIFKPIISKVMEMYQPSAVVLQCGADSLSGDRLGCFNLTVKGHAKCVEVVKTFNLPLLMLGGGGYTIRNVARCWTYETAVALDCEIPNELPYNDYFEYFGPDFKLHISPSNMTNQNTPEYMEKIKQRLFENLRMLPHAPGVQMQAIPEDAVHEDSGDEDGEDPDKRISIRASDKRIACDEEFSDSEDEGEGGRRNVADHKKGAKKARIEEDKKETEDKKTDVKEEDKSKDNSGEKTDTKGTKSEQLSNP
Chain of HDAC1 (Q13547 whole entry): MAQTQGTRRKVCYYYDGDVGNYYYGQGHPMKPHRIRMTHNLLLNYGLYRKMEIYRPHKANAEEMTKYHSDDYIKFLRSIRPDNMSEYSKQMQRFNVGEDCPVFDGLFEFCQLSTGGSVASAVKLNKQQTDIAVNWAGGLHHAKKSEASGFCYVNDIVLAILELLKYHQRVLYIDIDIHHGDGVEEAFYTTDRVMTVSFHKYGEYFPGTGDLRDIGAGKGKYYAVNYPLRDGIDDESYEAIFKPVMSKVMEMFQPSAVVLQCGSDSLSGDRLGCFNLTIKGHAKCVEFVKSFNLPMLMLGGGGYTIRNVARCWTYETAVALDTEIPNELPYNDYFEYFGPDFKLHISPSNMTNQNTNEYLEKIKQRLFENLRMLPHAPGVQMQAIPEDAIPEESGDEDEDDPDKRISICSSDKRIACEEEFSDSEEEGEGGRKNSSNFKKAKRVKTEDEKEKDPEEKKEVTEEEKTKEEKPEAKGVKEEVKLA

SMILES | Myeloid % control @ 10 uM dose [1] | Erythroid % control @ 10 uM dose [2] | half-life [3, 6] | half-life [3, 7] | clearance ([3]; 1 mg/kg IV) | IC50 (HDAC2 [4]) | also measured
Cc1ncc(-c2ccc(N)c(NC(=O)N3Cc4cn(C)nc4C3)n2)s1 [Compound 4] | 96% | 53% | 1.86 h | 2.12 h | 0.536 L/h/kg | 0.1 to 1 µM | Projected free brain @ 10 mpk [3]: 0.479 µM; Brain Cmax @ 10 mpk ([3]; brain): 324 ng/g
Nc1ccc(-c2cccs2)nc1NC(=O)N1Cc2cncnc2C1 [Comparator 6] |  |  | 0.152 h | 0.557 h | 8.33 L/h/kg |  | 
COCc1cc2c(cn1)CN(C(=O)Nc1nc(-c3ccc(F)cc3)ccc1N)C2 [Comparator 5, reference compound] | 58.9% | 22.9% |  |  |  |  | 
Cc1cc2c(cn1)CN(C(=O)Nc1nc(-c3ccc(F)cc3)ccc1N)C2 [Comparator 3, reference compound] | 66.1% | 25.7% |  |  |  |  | 
Cn1cc2c(n1)CN(C(=O)Nc1nc(-c3ccc(F)cc3)ccc1N)C2 [Comparator 2, reference compound] | 30.4% | 15.7% |  |  |  |  | 
Nc1ccc(-c2ccc(F)cc2)nc1NC(=O)N1Cc2cncnc2C1 [Comparator 1, reference compound] | 83.9% | 47.1% |  |  |  |  | Projected free brain @ 10 mpk (uM) (*scaled for comparison) ([3]; dosed 30 mg/kg PO, scaled to 10 mg/kg PO): 0.111* uM; Brain Cmax @ 10 mpk ng/g (*scaled for comparison) ([3]; dosed 30 mg/kg PO, scaled to 10 mg/kg PO, brain): 158* ng/g

Second part, led by results:

Myeloid % control @ 10 uM dose [1] | Erythroid % control @ 10 uM dose [2] | half-life [3, 6] | half-life [3, 7] | clearance ([3]; 1 mg/kg IV) | IC50 (HDAC2 [4]) | SMILES | also measured
103% | 94% | 7.53 h | 2.9 h | 1.07 L/h/kg | 0.1 to 1 µM | Cn1cc2c(n1)CN(C(=O)Nc1nc(-c3cccnc3)ccc1N)C2 [Compound 11] | Projected free brain @ 10 mpk [3]: 0.664 µM; Brain Cmax @ 10 mpk ([3]; brain): 369 ng/g
 |  |  |  |  | 0.1 to 1 µM | Nc1ccc(-c2cccnc2)nc1NC(=O)N1Cc2cnc(CC(F)F)cc2C1 [Compound 15] | 
 |  | 3.06 h | 2.95 h | 1.71 L/h/kg | 0.1 to 1 µM | Cc1nc2c(n1C)CN(C(=O)Nc1nc(-c3ccc(F)cc3)ccc1N)C2 [Compound 7] | Projected free brain @ 10 mpk [3]: 0.050 µM; Brain Cmax @ 10 mpk ([3]; brain): 102 ng/g
 |  |  |  |  | > 1.5 µM | Nc1ccc(-c2cccnc2)nc1NC(=O)N1Cc2cnc(C(F)F)cc2C1 [Compound 16] | 
 |  |  |  |  | 0.1 to 1 µM | Nc1ccc(-c2ccc(F)cc2F)nc1NC(=O)N1Cc2cn(C3COC3)nc2C1 [Compound 6] | IC50 (HDAC1): 0.5 to 5 µM; IC50 (HDAC2 [5]): 0.5 to 5 µM
